Tested on: AMPK
Experiment: AMPK enzyme activity assay (Delfia technology, AMARA peptide substrate)
Format: biochemical
Conditions: compound at 30 μM vs AMP at 200 μM
Method: The following biological test allows the determination of the efficacy of compounds of formula (1) onto AMPK protein.
AMPK enzyme activities were assayed by using a Delfia technology. AMPK enzyme activities were carried out in microtiter plates in the presence of a synthetic peptide substrate (AMARAASAAALARRR, the “AMARA” peptide) and activators in serial dilutions. Reactions were initiated by the addition of AMPK. Enzyme activity was assayed by using an anti-phosphoserine antibody to measure the quantity of phosphate incorporated into the AMARAA.
No: Number of the molecule
Activity: Ratio between the % of control (basal activity) of compound of formula (1) at 30 μM and the % of control (basal activity) of AMP (natural substrate) at 200 μM.

Activity: Ratio between the % of control (basal activity) of compound of formula (1) at 30 μM and the % of control (basal activity) of AMP (natural substrate) at 200 μM	SMILES
A (0%<A<50%)	O=C1Nc2scc(-c3ccccc3)c2C(=O)C1(F)c1ccc(C(F)(F)F)cc1 (stereo not shown) [No 133, 5-fluoro-3-phenyl-5-[4-(trifluoromethyl)phenyl]-7H-thieno[2,3-b]pyridine-4,6-dione]
C (C≧75%)	Cc1sc2c(c1-c1ccccc1)C(=O)C(F)(c1ccccc1)C(=O)N2 (stereo not shown) [No 70, 5-fluoro-2-methyl-3,5-diphenyl-7H-thieno[2,3-b]pyridine-4,6-dione]
A (0%<A<50%)	O=C(O)c1ccc(-c2csc3c2C(=O)C(F)(c2ccccc2)C(=O)N3)cc1 (stereo not shown) [No 198, 4-(5-fluoro-4,6-dioxo-5-phenyl-7H-thieno[2,3-b]pyridin-3-yl)benzoic acid]
C (C≧75%)	COc1cccc(C2(F)C(=O)Nc3scc(-c4ccccc4)c3C2=O)c1 (stereo not shown) [No 182, 5-fluoro-5-(3-methoxyphenyl)-3-phenyl-7H-thieno[2,3-b]pyridine-4,6-dione]
A (0%<A<50%)	O=C1Nc2sc(Cl)c(-c3ccncc3)c2C(=O)C1(F)c1ccccc1 (stereo not shown) [No 93, 2-chloro-5-fluoro-5-phenyl-3-(4-pyridyl)-7H-thieno[2,3-b]pyridine-4,6-dione]

The remaining lines, values behind:

SMILES	Activity: Ratio between the % of control (basal activity) of compound of formula (1) at 30 μM and the % of control (basal activity) of AMP (natural substrate) at 200 μM
COc1cc(C)ccc1-c1csc2c1C(=O)C(F)(c1cccc(C#N)c1)C(=O)N2 (stereo not shown) [No 110, 3-[5-fluoro-3-(2-methoxy-4-methyl-phenyl)-4,6-dioxo-7H-thieno[2,3-b]pyridin-5-yl]benzonitrile]	C (C≧75%)
COc1ccc(-c2c(Cl)sc3c2C(=O)C(C)(c2cccc(F)c2)C(=O)N3)cc1 (stereo not shown) [No 85, 2-chloro-5-(3-fluorophenyl)-3-(4-methoxyphenyl)-5-methyl-7H-thieno[2,3-b]pyridine-4,6-dione]	A (0%<A<50%)
Cc1ccc(-c2c(Cl)sc3c2C(=O)C(C)(c2cccc(C)c2)C(=O)N3)cc1 (stereo not shown) [No 144, 2-chloro-5-methyl-5-(m-tolyl)-3-(p-tolyl)-7H-thieno[2,3-b]pyridine-4,6-dione]	A (0%<A<50%)
O=C1Nc2scc(-c3ccccc3)c2C(=O)C1(Cc1ccccc1)c1ccccc1 (stereo not shown) [No 10, 5-benzyl-3,5-diphenyl-7H-thieno[2,3-b]pyridine-4,6-dione]	A (0%<A<50%)
CCOc1ccc(C2(C)C(=O)Nc3scc(-c4ccc(C)cc4F)c3C2=O)cc1 (stereo not shown) [No 17, 5-(4-ethoxyphenyl)-3-(2-fluoro-4-methyl-phenyl)-5-methyl-7H-thieno[2,3-b]pyridine-4,6-dione]	A (0%<A<50%)
O=C1Nc2sc(Cl)c(-c3ccc(O)c(F)c3)c2C(=O)C1(F)c1ccccc1 (stereo not shown) [No 77, 2-chloro-5-fluoro-3-(3-fluoro-4-hydroxy-phenyl)-5-phenyl-7H-thieno[2,3-b]pyridine-4,6-dione]	B (50%≦B<75%)
CC1(c2ccc(F)cc2)C(=O)Nc2sc(Cl)c(-c3ccc(F)cc3)c2C1=O (stereo not shown) [No 49, 2-chloro-3,5-bis(4-fluorophenyl)-5-methyl-7H-thieno[2,3-b]pyridine-4,6-dione]	A (0%<A<50%)

Same assay, conditions: compound at 30 μM vs AMP at 200 μM; listed as 4

Activity: Ratio between the % of control (basal activity) of compound of formula (1) at 30 μM and the % of control (basal activity) of AMP (natural substrate) at 200 μM	SMILES
A (0%<A<50%)	COc1cc(C)ccc1-c1csc2c1C(=O)C(F)(c1cccc(C#N)c1)C(=O)N2 (stereo not shown) [No 110, 3-[5-fluoro-3-(2-methoxy-4-methyl-phenyl)-4,6-dioxo-7H-thieno[2,3-b]pyridin-5-yl]benzonitrile]
